Source: paper PMC7673538 (PLoS Biology, 2020)
“And” between values parts separate entries of the source, which are not always exact repeats. Equal values may be shown once. Read-outs that look alike come from different tables or passages of the source.

Assays:
EV-D68 = test: microbe, parasite or virus in culture; assay type: cell-based, enterovirus D68; conditions: for EC50: Enterovirus D
HRV-B14 [1] = assay type: cell-based, human rhinovirus
in vitro [2] = conditions: human
in vitro [3] = conditions: monkey
human NET = biological target: T1, human NET (Homo sapiens, UniProt P23975); assay type: cell-based; conditions: for NET, Mean (Figure 8B): Control = 100; for NET, Mean as % (Figure 8B): Control = 100%
T1 construct: expressed in transfected cells; host or cells: HEK293 (gift of Dr. Hoener, F. Hoffmann-La Roche)

[4] = test system: representative EVs and RVs; assay type: cell-based
CV-A24 (strain Joseph) = assay type: cell-based, coxsackievirus A24
HRV-A2 [5] = test: microbe, parasite or virus in culture; assay type: cell-based, human rhinovirus; conditions: Human rhinovirus sp., HRVA2, HeLa R19, read-out: EC50 HRV-A2
PV-1 = test: microbe, parasite or virus in culture; assay type: cell-based, poliovirus 1; conditions: Enterovirus C
EV-A71 (strain BrCr) = assay type: cell-based, enterovirus A71
CV-B3 [6] = test: microbe, parasite or virus in culture; assay type: cell-based, coxsackievirus B3; conditions: Enterovirus B
CV-B3 [7] = test: microbe, parasite or virus in culture; assay type: cell-based, coxsackievirus B3; conditions: Enterovirus B, CVB3, BGM
HRV-A2 [8] = assay type: cell-based, human rhinovirus
human DAT = biological target: T2, human DAT (Homo sapiens, UniProt Q01959); assay type: cell-based; conditions: for DAT, Mean (Figure 8B): Control = 100; for DAT, Mean as % (Figure 8B): Control = 100%
T2 construct: expressed in transfected cells; host or cells: HEK293 (gift of Dr. Hoener, F. Hoffmann-La Roche)

human SERT = biological target: T3, human SERT (Homo sapiens, UniProt P31645); assay type: cell-based
T3 construct: expressed in transfected cells; host or cells: HEK293 (gift of Dr. Hoener, F. Hoffmann-La Roche)

in vitro [9] = conditions: human; remark: listed apart in the source
CV-B3 [10] = test: microbe, parasite or virus in culture; assay type: cell-based, coxsackievirus B3; conditions: for EC50: Enterovirus B
CV-A24v = test: microbe, parasite or virus in culture; assay type: cell-based, coxsackievirus A24v
HRV-B14 [11] = test: microbe, parasite or virus in culture; assay type: cell-based, human rhinovirus; conditions: Human rhinovirus sp.

T3 sequence (P31645 whole entry): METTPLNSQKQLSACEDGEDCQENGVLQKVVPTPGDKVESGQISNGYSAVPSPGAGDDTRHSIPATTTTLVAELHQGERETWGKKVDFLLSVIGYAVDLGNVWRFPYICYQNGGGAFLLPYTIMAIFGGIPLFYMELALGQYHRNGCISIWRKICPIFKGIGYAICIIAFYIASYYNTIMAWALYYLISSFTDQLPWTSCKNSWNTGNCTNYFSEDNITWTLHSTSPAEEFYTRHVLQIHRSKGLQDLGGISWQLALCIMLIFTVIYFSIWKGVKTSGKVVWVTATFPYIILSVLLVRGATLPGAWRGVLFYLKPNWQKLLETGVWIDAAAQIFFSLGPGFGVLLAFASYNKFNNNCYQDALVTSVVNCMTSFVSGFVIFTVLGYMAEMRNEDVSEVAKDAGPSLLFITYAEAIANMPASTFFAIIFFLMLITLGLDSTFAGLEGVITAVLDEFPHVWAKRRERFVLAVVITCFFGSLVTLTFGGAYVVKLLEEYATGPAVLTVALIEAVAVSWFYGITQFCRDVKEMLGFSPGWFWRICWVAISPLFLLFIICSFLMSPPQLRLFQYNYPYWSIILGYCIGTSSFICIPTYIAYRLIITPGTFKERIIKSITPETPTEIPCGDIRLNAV
T2 sequence (Q01959 whole entry): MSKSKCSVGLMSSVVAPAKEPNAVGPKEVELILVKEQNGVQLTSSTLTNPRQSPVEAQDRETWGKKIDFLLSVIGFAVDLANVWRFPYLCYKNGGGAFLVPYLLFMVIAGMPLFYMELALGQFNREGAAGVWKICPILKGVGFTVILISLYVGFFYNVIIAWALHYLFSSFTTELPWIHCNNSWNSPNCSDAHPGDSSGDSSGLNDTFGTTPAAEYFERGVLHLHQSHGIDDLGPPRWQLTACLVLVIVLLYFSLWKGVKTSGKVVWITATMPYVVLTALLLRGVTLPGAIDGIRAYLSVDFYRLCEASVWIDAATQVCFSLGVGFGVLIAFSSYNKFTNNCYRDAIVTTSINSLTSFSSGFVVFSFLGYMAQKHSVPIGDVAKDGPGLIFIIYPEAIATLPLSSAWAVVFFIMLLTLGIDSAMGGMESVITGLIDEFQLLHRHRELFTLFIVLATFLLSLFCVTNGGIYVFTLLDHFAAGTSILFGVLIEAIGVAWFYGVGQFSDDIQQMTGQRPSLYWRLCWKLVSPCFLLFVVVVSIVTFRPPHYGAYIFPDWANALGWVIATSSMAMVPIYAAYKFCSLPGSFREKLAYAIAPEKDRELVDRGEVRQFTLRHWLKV
T1 sequence (P23975 whole entry): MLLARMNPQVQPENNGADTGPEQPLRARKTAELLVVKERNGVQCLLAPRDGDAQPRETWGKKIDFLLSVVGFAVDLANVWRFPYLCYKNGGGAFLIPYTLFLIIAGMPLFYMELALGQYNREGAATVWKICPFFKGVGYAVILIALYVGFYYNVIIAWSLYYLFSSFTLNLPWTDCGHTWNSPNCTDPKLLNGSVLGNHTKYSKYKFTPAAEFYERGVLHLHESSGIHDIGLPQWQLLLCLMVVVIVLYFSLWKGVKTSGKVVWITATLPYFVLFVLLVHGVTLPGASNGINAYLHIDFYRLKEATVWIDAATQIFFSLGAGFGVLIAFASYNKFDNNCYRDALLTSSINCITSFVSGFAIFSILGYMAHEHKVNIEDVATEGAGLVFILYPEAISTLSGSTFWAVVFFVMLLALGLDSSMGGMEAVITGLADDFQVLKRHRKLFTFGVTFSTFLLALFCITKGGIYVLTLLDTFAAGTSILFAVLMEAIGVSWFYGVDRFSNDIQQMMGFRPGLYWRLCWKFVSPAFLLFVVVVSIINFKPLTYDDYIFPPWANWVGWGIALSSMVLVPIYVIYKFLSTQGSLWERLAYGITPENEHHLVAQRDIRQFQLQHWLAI

O=C(c1ccco1)N(Cc1ccc(C(F)(F)F)cc1)c1ccccc1 [Compound 19d, N-phenyl-N-(4-(trifluoromethyl)benzyl)furan-2-carboxamide]
resistance of reverse-engineered EV-D68 2C T196S (in words) (EV-D68): provided 19d resistance, although resistance was rather moderate
resistance of reverse-engineered EV-D68 2C V96M (in words) (EV-D68): provided 19d resistance, although resistance was rather moderate
multicycle replication assay read-out, EV-D68 Fermon (EV-D68; 0.2344 µM): 10 and 12
multicycle replication assay read-out, EV-D68 Fermon (EV-D68; 0.4688 µM): 22 and 14 and 23
multicycle replication assay read-out, EV-D68 Fermon (EV-D68; 0.9375 µM): 10 and 16.5525
multicycle replication assay read-out, EV-D68 Fermon (EV-D68; 1.875 µM): 102.405 and 111.906 and 97.379
multicycle replication assay read-out, EV-D68 Fermon (EV-D68; 3.75 µM): 102.405 and 111.906 and 97.379
multicycle replication assay read-out, EV-D68 Fermon (EV-D68; 7.5 µM): 109.948 and 106.039 and 109.278
multicycle replication assay read-out, EV-D68 Fermon (EV-D68; 15 µM): 109.948 and 106.039 and 109.278
multicycle replication assay read-out, EV-D68 Fermon (EV-D68; 30 µM): 109.948 and 106.039 and 109.278
EC50 (EV-D68; EVD68, HeLa R19, […], read-out: EC50 Exp1): 3.84 µM
EC50 (EV-D68; EVD68, HeLa R19, read-out: EC50 EV-D68): 1.37 ± 0.02 µM
EC50 (EV-D68; EVD68, HeLa R19, read-out: EC50 EV-D68 strain 4310900947): 4.6 ± 0.37 µM
EC50 (EV-D68; EVD68, HeLa R19, read-out: EC50 EV-D68 strain 4310901348): 3.55 ± 0.43 µM
EC50 (EV-D68; EVD68, HeLa R19, read-out: EC50 EV-D68 strain 4310902042): 3.53 ± 0.41 µM
EC50 (EV-D68; EVD68, HeLa R19, read-out: EC50 EV-D68 strain 4310902284): 1.82 ± 0.57 µM
EC50 (EV-D68; EVD68, HeLa R19, read-out: EC50 EV-D68 strain 4311000742): 3.91 ± 0.13 µM
EC50 (EV-D68; EVD68 / genotype 2c, HeLa R19, read-out: EC50 EV-D68 WT): 1.55 ± 0.17 µM
virus titer, TCID50/ml (Figure 2A) (HRV-B14 [1]; compound concentration 0.001 µM): 13548130 TCID50/ml and 11698240 TCID50/ml
virus titer, TCID50/ml (Figure 2A) (HRV-B14 [1]; compound concentration 0.01 µM): 16982410 TCID50/ml and 30000000 TCID50/ml and 31612280 TCID50/ml
virus titer, TCID50/ml (Figure 2A) (HRV-B14 [1]; compound concentration 0.1 µM): 13548130 TCID50/ml and 11698240 TCID50/ml
virus titer, TCID50/ml (Figure 2A) (HRV-B14 [1]; compound concentration 0.3 µM): 13548130 TCID50/ml and 11698240 TCID50/ml
virus titer, TCID50/ml (Figure 2A) (HRV-B14 [1]; compound concentration 1 µM): 348134 TCID50/ml and 316228 TCID50/ml and 354813 TCID50/ml
CC50 (in vitro [2]; CC50 Average): > 30 µM
CC50 (in vitro [2]; CC50 HelaR19 Average): 93.7 µM
CC50 (in vitro [2]; Exp 1 CC50): > 30 µM
CC50 (in vitro [2]; Exp 1 CC50 HelaR19): 92.3 µM
CC50 (in vitro [2]; Exp2 CC50): > 30 µM
CC50 (in vitro [2]; Exp 2 CC50 HelaR19): 95 µM
CC50 (in vitro [3]; CC50): 92.6 ± 1.51 µM
CC50 (in vitro [3]; CC50 BGM Average): 92.6 µM
CC50 (in vitro [3]; Exp 1 CC50 BGM): 91.1 µM
CC50 (in vitro [3]; Exp 2 CC50 BGM): 94.1 µM
NET, Mean (Figure 8B) (human NET; 1µM): 125.873
NET, Mean as % (Figure 8B) (human NET; 1µM): 126%
NET, Mean (Figure 8B) (human NET; 100µM): 118.011
NET, Mean as % (Figure 8B) (human NET; 100µM): 118%
inhibition of NET function (in words) (human NET; HEK293 cells expressing human NET, 1 μM or 100 μM): neither 12a, 19b, 19d, nor the combined compound 12b inhibited
inhibition of contemporary/clinical isolates of EV-A71, CV-A24v and EV-D68 (in words) [4]: inhibited all clinical isolates of EV-A71, CV-A24v, and EV-D68 tested
spectrum of antiviral activity (in words) [4]: inhibited all representative EVs and RVs
virus titer, TCID50/ml (Figure 2A) (CV-A24 (strain Joseph); compound concentration 10 µM): 316.228 TCID50/ml
virus titer, TCID50/ml (Figure 2A) (CV-A24 (strain Joseph); compound concentration 30 µM): 316.228 TCID50/ml
virus titer, TCID50/ml (Figure 2A) (CV-A24 (strain Joseph); compound concentration 100 µM): 316.228 TCID50/ml
virus titer, TCID50/ml (Figure 2A) (CV-A24 (strain Joseph); compound concentration 150 µM): 316.228 TCID50/ml
EC50 (HRV-A2 [5]): 15.2 ± 1.13 µM
EC50 (PV-1; HeLa R19, read-out: EC50 Exp1): 21 µM
EC50 (PV-1; HeLa R19, read-out: EC50 Exp2): 22.1 µM
EC50 (PV-1; HeLa R19, read-out: EC50 PV-1): 21.5 ± 0.54 µM
virus titer, TCID50/ml (Figure 2A) (EV-A71 (strain BrCr); compound concentration 10 µM): 316.228 TCID50/ml
virus titer, TCID50/ml (Figure 2A) (EV-A71 (strain BrCr); compound concentration 30 µM): 316.228 TCID50/ml
virus titer, TCID50/ml (Figure 2A) (EV-A71 (strain BrCr); compound concentration 100 µM): 316.228 TCID50/ml
virus titer, TCID50/ml (Figure 2A) (EV-A71 (strain BrCr); compound concentration 150 µM): 316.228 TCID50/ml
EC50 (CV-B3 [6]; CVB3, HAP1, read-out: EC50 Hap1 Average): 750 nM
EC50 (CV-B3 [6]; CVB3, HAP1, read-out: Exp 1 EC50 Hap1): 690 nM
EC50 (CV-B3 [6]; CVB3, HAP1, read-out: Exp 2 EC50 Hap1): 800 nM
EC50 (CV-B3 [7]; read-out: EC50 BGM Average): 380 nM
EC50 (CV-B3 [7]; read-out: Exp 1 EC50 BGM): 440 nM
EC50 (CV-B3 [7]; read-out: Exp 2 EC50 BGM): 320 nM
virus titer, TCID50/ml (Figure 2A) (HRV-A2 [8]; compound concentration 0.01 µM): 354813 TCID50/ml
virus titer, TCID50/ml (Figure 2A) (HRV-A2 [8]; compound concentration 1 µM): 169824 TCID50/ml and 188844 TCID50/ml
virus titer, TCID50/ml (Figure 2A) (HRV-A2 [8]; compound concentration 3 µM): 354813 TCID50/ml and 588844 TCID50/ml
virus titer, TCID50/ml (Figure 2A) (HRV-A2 [8]; compound concentration 30 µM): 1316.23 TCID50/ml and 1316 TCID50/ml
DAT, Mean (Figure 8B) (human DAT; 1µM): 99.9783
DAT, Mean as % (Figure 8B) (human DAT; 1µM): 76%
DAT, Mean (Figure 8B) (human DAT; 100µM): 90.1191
DAT, Mean as % (Figure 8B) (human DAT; 100µM): 90%
inhibition of DAT function (in words) (human DAT; HEK293 cells expressing human DAT, 1 μM or 100 μM): neither 12a, 19b, 19d, nor the combined compound 12b inhibited
SERT, Mean (Figure 8B) (human SERT; 1µM, Control = 100.00): 104.62
SERT, Mean as % (Figure 8B) (human SERT; 1µM, Control = 100%): 105%
SERT, Mean (Figure 8B) (human SERT; 100µM): 107.21
SERT, Mean as % (Figure 8B) (human SERT; 100µM): 107%
inhibition of SERT-mediated uptake (in words) (human SERT; HEK293 cells expressing human SERT, 1 and 100 μM): neither 12a, 19b, 19d, nor the combined compound 12b inhibited
CC50 (in vitro [9]; CC50 Hap1 Average): 97.8 µM
CC50 (in vitro [9]; Exp 1 CC50 Hap1): 97.5 µM
CC50 (in vitro [9]; Exp 2 CC50 Hap1): 98.1 µM
cytotoxicity (in words) (HeLa R19 cells): very minimal cytotoxicity
effect of the substitution on antiviral activity against CV-B3 (in words) (CV-B3 [10]): only marginally affected antiviral activity
EC50 (CV-B3 [10]; CVB3, HeLa R19, […], read-out: EC50 Exp1): 7980 nM
EC50 (CV-B3 [10]; CVB3, HeLa R19, read-out: CV-B3 EC50 Average): 790 nM
EC50 (CV-B3 [10]; CVB3, HeLa R19, read-out: CV-B3 Exp 1 EC50): 730 nM
EC50 (CV-B3 [10]; CVB3, HeLa R19, read-out: CV-B3 Exp2 EC50): 850 nM
EC50 (CV-B3 [10]; CVB3, HeLa R19, read-out: EC50 Exp1): 1040 nM
EC50 (CV-B3 [10]; CVB3, HeLa R19, read-out: EC50 HelaR19 Average): 770 nM
EC50 (CV-B3 [10]; CVB3, HeLa R19, read-out: Exp 1 EC50 HelaR19): 910 nM
EC50 (CV-B3 [10]; CVB3, HeLa R19, read-out: Exp 2 EC50 HelaR19): 630 nM
EC50 (CV-B3 [10]; CVB3 / genotype 2c, HeLa R19, read-out: EC50 CV-B3 WT): 1260 ± 150 nM
EC50 (CV-A24v; Coxsackievirus, HeLa R19, read-out: EC50 Average): 18.6 µM
EC50 (CV-A24v; Coxsackievirus, HeLa R19, read-out: EC50 CV-A24v strain 110386): 15.7 ± 1.32 µM
EC50 (CV-A24v; Coxsackievirus, HeLa R19, read-out: EC50 CV-A24v strain 110389): 18.6 ± 0.44 µM
EC50 (CV-A24v; Coxsackievirus, HeLa R19, read-out: EC50 CV-A24v strain 110390): 16.8 ± 0.33 µM
EC50 (CV-A24v; Coxsackievirus, HeLa R19, read-out: EC50 CV-A24v strain 110392): 19.1 ± 0.97 µM
EC50 (CV-A24v; Coxsackievirus, HeLa R19, read-out: EC50 Exp1): 17 µM
EC50 (CV-A24v; Coxsackievirus, HeLa R19, read-out: EC50 Exp2): 14.3 µM
EC50 (CV-A24v; read-out: EC50 Average): 16.8 µM
EC50 (CV-A24v; read-out: EC50 Exp1): 18.1 µM and 17.1 µM and 20 µM
EC50 (CV-A24v; read-out: EC50 Exp2): 19 µM and 16.4 µM and 18.1 µM
EC50 (HRV-B14 [11]; HRVB14, HeLa R19, read-out: EC50 Exp1): 4.76 µM
EC50 (HRV-B14 [11]; HRVB14, HeLa R19, read-out: EC50 Exp2): 3.61 µM
EC50 (HRV-B14 [11]; HRVB14, HeLa R19, read-out: EC50 HRV-B14): 4.19 ± 0.58 µM
